Two compounds from paper PMC11936226, “Tris inhibits a GH1 β-glucosidase by a linear mixed inhibition mechanism” (PLOS One, 2025) can be followed below.

Experiment [1] addresses T1, Sfβgly (GH1 β-glucosidase) (Spodoptera frugiperda, UniProt O61594).
T1 construct: purified recombinant Sfβgly
Nature of the experiment: steady-state inhibition kinetics (Lineweaver-Burk) with NPβglc as substrate; also with cellobiose (Ki […]). It is filed as biochemical.

The target in experiment [2] is T1, Sfβgly (GH1 β-glucosidase). Nature of the experiment: hydrolysis initial rates by purified enzyme (glucose detection). It is filed as biochemical.

For orientation: Ki means a dissociation constant, usually derived from enzyme kinetics or from competition with a known ligand.

T1 sequence (O61594 21-509): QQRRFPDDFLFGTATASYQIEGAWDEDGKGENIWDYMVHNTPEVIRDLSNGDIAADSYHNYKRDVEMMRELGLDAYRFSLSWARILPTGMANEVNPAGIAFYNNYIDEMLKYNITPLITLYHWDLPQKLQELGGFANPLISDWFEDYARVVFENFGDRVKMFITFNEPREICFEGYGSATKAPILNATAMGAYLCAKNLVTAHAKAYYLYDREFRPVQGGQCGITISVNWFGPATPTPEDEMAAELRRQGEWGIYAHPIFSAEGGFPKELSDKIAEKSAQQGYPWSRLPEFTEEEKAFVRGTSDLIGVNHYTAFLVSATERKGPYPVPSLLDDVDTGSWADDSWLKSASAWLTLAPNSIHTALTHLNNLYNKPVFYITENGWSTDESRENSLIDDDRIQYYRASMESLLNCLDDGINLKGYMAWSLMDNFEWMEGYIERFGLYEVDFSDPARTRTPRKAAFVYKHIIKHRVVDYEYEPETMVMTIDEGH

On to `NC(CO)(CO)CO` [Tris, 2-amino-2-(hydroxymethyl)-1,3-propanediol], for which the affinity in experiment [1] corresponds to a Ki of 12 ± 2 mM.
Turning to `OC[C@H]1O[C@@H](O[C@H]2[C@H](O)[C@@H](O)C(O)O[C@@H]2CO)[C@H](O)[C@@H](O)[C@@H]1O` (some centres unmarked) [C2, cellobiose], the “hydrolysis initial rates by purified enzyme (glucose detection)” value in experiment [2] was “The same experiment was repeated using C2, a natural substrate of Sfβgly, and two independent enzyme samples”.
